Assay results: BindingDB's records for doi:10.1021/acs.jmedchem.6b01363 (Genentech, 2017)

Each compound was assayed against Transcription factor p65 (Human, UniProt Q04206) (assay: Inhibition of TNF-alpha-stimulated RELA translocation from cytoplasm to nucleus in human HeLa cells preincubated for 4.5 hrs followed by TNF-alpha stimulation measured after 30 mins).
Transcription factor p65, sequence (Q04206 whole entry): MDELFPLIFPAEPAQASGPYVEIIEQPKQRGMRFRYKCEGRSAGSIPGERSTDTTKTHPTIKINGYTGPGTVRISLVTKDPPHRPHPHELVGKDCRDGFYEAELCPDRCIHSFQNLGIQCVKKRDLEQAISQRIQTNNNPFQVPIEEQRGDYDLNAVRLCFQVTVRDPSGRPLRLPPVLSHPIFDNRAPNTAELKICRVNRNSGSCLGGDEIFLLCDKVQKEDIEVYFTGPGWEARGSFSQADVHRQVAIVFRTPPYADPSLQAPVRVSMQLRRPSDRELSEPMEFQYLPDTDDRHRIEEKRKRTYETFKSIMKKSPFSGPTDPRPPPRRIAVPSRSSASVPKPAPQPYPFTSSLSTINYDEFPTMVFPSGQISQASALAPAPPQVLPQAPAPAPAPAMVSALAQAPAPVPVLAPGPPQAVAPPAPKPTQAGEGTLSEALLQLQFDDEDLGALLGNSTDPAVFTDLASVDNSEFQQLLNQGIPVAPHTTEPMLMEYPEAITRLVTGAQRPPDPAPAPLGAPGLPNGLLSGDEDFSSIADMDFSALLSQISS

IC50, > 20 µM:
Cc1cc([C@](C)(O)C#Cc2cc3c(cc2F)C2CC(C2)n2cc(C(N)=O)nc2-3)no1 [US9034866, 129]
Cc1cc([C@](C)(O)C#Cc2cc3c(cc2F)OCCn2cc(C(N)=O)nc2-3)no1 [US9034866, 6]
CNC(=O)c1c(C(N)=O)nc2n1CCOc1ccc(C#C[C@@](C)(O)c3cc(C)on3)cc1-2 [US9034866, 96]
